{
  "source": "patent US20180325947A1",
  "about": "“USE OF MAPK INHIBITORS TO REDUCE LOSS OF HEMATOPOIETIC STEM CELLS DURING EX VIVO CULTURE AND/OR GENETIC MANIPULATION” (Children's Hospital Medical Center, priority 2015, published 2018)",
  "format_in_all_cases": "cell-based",
  "key": {"[1]": {"system": "human HSCs (CD34+ 38- 90+ 45RA- 49f+)", "experiment": "percent phenotypic hHSC in ex vivo cultured CD34+ cells, flow cytometry", "settings": "for percent hHSCs ex vivo in culture: ex vivo culture up to 72 hours", "description": "Four different p38 inhibitors all increase the percent hHSCs ex vivo in culture studies up to 72 hours.\n(§1) Human CD34^+ cells were cultured and transduced as described in FIG. 13, panel A. Harvested cells were stained with trypan blue for viability, total CD34+ cell number (Panel A), fold change in percent human CD34^+ 38^− 90^+ 45RA^− 49f^+ (HSCs) (Panel B), percent annexin V^+ (apoptotic) CD34^+38^− 90^+ cells (Panel C), fold change in transduction efficiency (based on GFP marker percentage) over non-treated CD34^+38^− 90^+ cells (Panel D), fold change in MitoSOX MFI in CD34^+38^− 90^+ cells are shown (Panel E). Data represents mean±SEM. Statistics: Student's t test, […], *p<0.05, **p<0.01, ***p<0.001."}, "[2]": {"system": "human CD34+ cells", "experiment": "total CD34+ cell number / viability, trypan blue", "settings": "with or without p38i", "description": "as §1"}, "[3]": {"system": "human CD34+ 38- 90+ HSC enriched population", "experiment": "DNA damage response (gamma-H2AX, 53BP1) by immunofluorescence and flow cytometry", "description": "Human MPB derived CD34^+ cells were cultured and transduced with lentivirus (LV) or retrovirus (RV) for the indicated time points. Representative Immunofluorescence images of sorted human CD34^+ 38^− 90^+ population treated with or without p38i for 72 hours stained with anti-γH2AX and 53BP1 (Panel A) and quantification of γ-H2AX (Panel B) and 53BP1 (Panel C) MFI/cell. Panel D: Representative histogram plot from flow cytometric analysis of CD34^+ 38^− 90^+ HSC enriched cells stained for γ-H2AX with or without p38 inhibitor (p38i) and quantification of fold change in mean fluorescence intensity (MFI) of γ-H2AX in HSCs (Panel E) and percent GH2AX^+ cells (Panel F) at indicated time period. Percentage shown in histograms are cells positive for γH2AX and the numbers below is mean fluorescent intensity (MFI) (n=5 independent experiments). FACS plot representing HSCs in G0 (Quiescent), G1, and S-G2-M phase of cell cycle with or without p38i (Panel G) and quantification (Panel H) of HSC enriched population at different cell cycle phase at indicated time of ex vivo culture. Percentage of (±SEM) Ki67^− (G0) and Ki67^+ (G1-S-G2-M) HSCs is depicted on the y-axis. (n=4 independent experiments for 24 h LV and n=5 independent experiments for 42 h LV and 72 h RV)). Statistics: paired Student's t test, *p<0.05, **p<0.01, ***p<0.001.\nHuman MPB derived CD34^+ cells were cultured and transduced as described in FIG. 17. Panel A: Quantification of γ-H2AX^+ CD34^+ 38^− 90^+ cells at 24, 42, & 72 hours. n=5-8 independent experiments/condition). Panel B: Quantification of immunofluorescence analysis for γ-H2AX (left) and 53BP1 (right) MFI per sorted human CD34^+ 38^− 90^+ cell with or without p38i for 42 hours. Panel C: Quantitative plot representing CD34^+ 38^− 90^+ cells in G0-G1, and S-G2-M phase of cell cycle with or without p38i at 42 hours of ex vivo culture and lentivirus (LV) transduction. (n=6 independent experiments/condition). Statistics: paired Student's t test, *p<0.05, **p<0.01, ***p<0.001. Statistics: Student's t test, *p<0.05, **p<0.01, ***p<[…].\nHuman BM derived CD34 cells were cultured and transduced with lentivirus (LV) for 48 hours. Representative FACS plot representing bone marrow derived HSC enriched CD34^+ 38^− 90^+ population in G0 (Quiescent), G1, and S-G2-M phase of cell cycle with or without p38i (left) and the corresponding representative histogram plot of γH2AX at indicated time and treatment. Percentage shown in histogram refers to cells positive for γH2AX and the numbers below is mean fluorescent intensity (MFI).\np38 inhibition maintains the quiescent phase of HSCs and reduces DNA damage response (DDR) early in culture. Cell cycle entry and gene manipulation induces a DDR in human HSCs that is reduced by inhibiting p38MAPK early in culture. DNA double-strand breaks in Human HSCs were assessed by γ-H2AX staining, a sensitive and specific indicator of DNA double-strand breaks."}},
  "data": [
    {"smiles": "Cc1ccc(-n2nc(C(C)(C)C)cc2NC(=O)Nc2ccc(OCCN3CCOCC3)c3ccccc23)cc1", "note": "[BIRB-796, 1-[5-tert-butyl-2-(4-methylphenyl)pyrazol-3-yl]-3-[4-(2-morpholin-4-ylethoxy)naphthalen-1-yl]urea]", "values": [
      {"measurement": "human HSCs in vitro", "setting": "[1]; at 400, 600 and 800 nm concentrations", "value": "appeared to increase"},
      {"measurement": "percent hHSCs ex vivo in culture", "setting": "[1]", "value": "significant increase"},
      {"measurement": "percent hHSCs ex vivo in culture", "setting": "[1]; listed as p38i", "value": "increased"},
      {"measurement": "loss of stem cells during in vitro or ex vivo culture", "setting": "[1]; stem cells having undergone genetic manipulation that induces a DNA double strand break", "value": "successfully reduced"},
      {"measurement": "total number of CD34+ cells or their viability", "setting": "[2]", "value": "no significant change"},
      {"measurement": "percentage of γH2AX+ cells", "setting": "[3]; 36-42 h and 72-96 h groups", "value": "significantly reduced"},
      {"measurement": "γH2AX staining", "setting": "[3]; 24 hours of culture, flow cytometry", "value": "returned to levels seen in unmanipulated HSC"},
      {"measurement": "DNA Damage Response (DDR)", "setting": "[3]; MPB derived CD34+ 38- 90+ cells, ex vivo culture and gene transfer", "value": "reduces"},
      {"measurement": "DNA Damage Response (DDR)", "setting": "[3]; bone marrow (BM) derived CD34+ 38- 90+ cells, LV 48 hours", "value": "reduces"},
      {"measurement": "γH2AX foci (DNA damage response)", "setting": "[3]; cultured and transduced for 36-42 hours or 72 hours", "value": "rescued"}
    ]}
  ]
}
